Assay results reported in US7414068B2, “Benzopyran derivatives substituted with secondary amines including tetrazole, method for the preparation thereof and pharmaceutical compositions containing them” (Dongbu Hannong Chemical Co., Ltd., priority 2002, dated 2008).
pIC50: −log10 of the molar value.

Assays:
isolated rat aorta = assay: Vasodilating effect on blood vessel excised from rats (methoxamine-constricted aorta); settings: isolated rat aorta constricted with methoxamine (3 μM); read-out: Concentration for inhibition of constriction induced by methoxamine in rat arota (IC50)
Description: Rats (350˜450 g, obtained from the Experimental Animal Team of the Korea Research Institute of Chemical Technology) were knocked to be unconscious by hitting the occipital region, sacrificed by cervical dislocation, and underwent thoracotomy. After being quickly removed, the thoracic aorta was deprived of the adipose tissue and cut into aortic rings of 3 mm width. The aorta was lightly rubbed with cotton club soaked in a modified Krebs Henseleit buffer (Physiological salt solution) to remove the inner epithelial layer therefrom. While being hung in an organ bath containing a physiological buffer, the vascular smooth muscle was allowed to equilibrate under a resting tension of 2 g and then, stand for 1 hour at 37° C. for stabilization, supplying a carbogen consisting of 95% O2˜5% CO2.
Thereafter, the vascular smooth muscle was constricted with 10^−5M phenylephrine and washed several times with physiological saline solution. The said procedure was repeated again to ensure the stable reactivity of vascular smooth muscle to repetitive constriction/relaxation.
Thereafter, 3×10^−6 M methoxamine was applied to induce an intensive constriction in the vascular smooth muscle. When the vasoconstriction induced by the methoxamine was reached and maintained to a maximum, test compounds and control material was cumulatively added to the organ bath in concentration of 1, 3, 10 and 30 μM, respectively, to examine the vasodilating effect. Cromakalim, BMS-180448 (the compound of formula 4) and BMS-191095 (the compound of formula 5), known to be the first generation KATP opener with potent vasodilating effect were used as control materials.
The change rate of constriction by the addition of the drugs compared to the maximal constriction induced by methoxamine was calculated to plot a concentration-relaxation response curve. Through a least linear regression analysis, IC50 that the drug concentration at which the vascular tissue is relaxed to 50% extent of the maximal constriction, was obtained for each drug.

[1] = Acute oral toxicity test in rats; settings: SD, rat, in vivo, single oral dose, suspended in 0.5% methyl cellulose, read-out: lethal dose (LD50) for oral administration
Procedure: In this test, six-week old SPF SD rats were used with two rats assigned to each group. Each group was consisted of two rats. The compounds prepared in example 1, 7, 11, 17, 22, 24, 26, 28, 30, 32, 34, 42, 52, 54, 55, 56, 57, 59, 60, 61, 70, 75, 77, 79, 81, 83, 85, and 89 were suspended in 0.5% methyl cellulose, respectively. […] Also, hematological test and biochemical analysis were accomplished. After sacrificing the animals, autopsy was performed for macroscopic observations of the organs and tissues. As a result, there was no significant changes in clinical symptoms, body weight and mortalities. Also in hematology, serum chemistry parameters, macroscopic observation and drug-related changes were not observed.

cortical neuron cells = assay: Protective effect on iron-induced neuronal cell injury (LDH release); format: cell-based; settings: FeSO4 50 μM; for protective effect on neuron cell: Inhibition (%, 30 μM compound addition): LDH reduction vs control; for pIC50: LDH
Procedure: From the brains of 17˜18 day-old embryos, cortical neuron cells were isolated and then, cultured at 37° C. for 7˜9 days in a 5% CO2 incubator. The said cortical cell cultures were washed twice with MEM (Minimum essential medium) to reduce the serum level to 0.2%. […] Then, the compound of the said concentration was pre-treated for 30 min, respectively. For the experiment, test compound was dissolved in DMSO and diluted in a medium. At this time, the final concentration of DMSO was not allowed to exceed 0.1%. For control group, only vehicle was applied.
After the said pre-treatment, FeSO4 was added to the medium for a final concentration to be 50 μM. The medium was cultured in CO2 incubator for 24 hours. During the incubation, lactate dehydrogenase (LDH) was released by iron. The serum level of lactate dehydrogenase released into the medium was measured to assess necrosis of neuronal cell by the oxidative toxicity of iron. The protective effect on neuron cells of the test compounds was evaluated by calculating the LDH reduction rate of treatment-group compared with that of the control group.

brain homogenate = assay: Inhibitory effect against lipid peroxidation by iron (MDA quantification); format: biochemical, rat; settings: 100 μM compound, FeCl2 400 μM, 37° C. 30 min
Procedure: The rat brain was homogenized in a Krebs buffer (15 mM HEPES, 10 mM glucose, 140 mM NaCl, 3.6 mM KCl, 1.5 mM CaCl2, 1.4 mM KH2PO4, 0.7 mM MgCl2, PH 7.4) and the supernatant separated by centrifugation at 12,000 rpm for 10 min was used for further experiments. FeCl2 was added for the final concentration to be 400 μM. Then the brain homogenate was allowed to stand at 37° C. for 30 min for the facilitation of oxidation. Each of the test compounds was added at a concentration of 100 μM. For control group, only vehicle was applied.
Iron facilitates the oxidation of the said brain homogenate to produce malondialdehyde (MDA), lipid peroxidation product. Thus, the lipid peroxidation was determined by MDA quantification. The inhibitory effect against lipid peroxidation of the test compounds was evaluated by calculating MDA reduction rate of the test compounds compared with that of the control group.
Typically, the MDA quantification is achieved by reacting samples with 2-thiobarbituric acid (TBA) and measuring the absorbance at 530 nm. However, this method is unsuitable to treat samples on a large scale because of a boiling step. Thus, in this experiment, N-methyl-2-phenylindole was used instead of TBA.

[2] = test system: isolated ischemic rat heart; assay: Cardioprotective effect in ischemic heart models of rats (Langendorff); settings: 10 μM
Procedure: Male rats (300˜450 g, obtained form the experimental animal team of the Korea Research Institute of Chemical Technology) were anaesthetized by the intra-peritoneal injection of sodium pentobarbital at a dose of 100 mg/kg. Heparin (1,000 U/kg) was injected to the tail vein and then the heart was enucleated. Particularly, cannula (PE 240) was inserted to the organ. Rats were mechanically ventilated with a rodent ventilator, in situ aorta cannula was inserted into their aorta. In retorograde perfusion, their hearts were enucleated, then just hung onto Langendorff Apparatus. Tissue attached at the heart was removed. Heart was perfused in oxygenated modified Krebs-Henseleit bicarbonate buffer (composition<mM/L>116 NaCl, 4.7 KCl, 1.1 MgSO4, 1.17 KH2PO4, 24.9 NaHCO3, 2.52 CaCl2, 8.32 Glucose, 2.0 Pyruvate) at a constant perfusion pressure (85 mmHg). A metal cannula attached to latex balloon filled with solvent (ethanol: water=1:1 (v/v)) was placed in the left ventricle through pulmonary vein and connected to a isovolumetric pressure transducer (H.S.E., Germany) for measurement of left ventricular pressure (LVP). The hearts were allowed to equilibrate for 15 min, at which time left ventricular end-diastolic pressure (EDP) was adjusted to 5 mmHg and this balloon volume was maintained throughout the experiment.
Baseline cardiac contractile function, heart rate (HR), and coronary flow (CF) were measured. Cardiac contractile function was calculated by […], yielding LVDP (left ventricular developed pressure). Double product RPP (rate-pressure product) (DP), another important parameter for indirectly assessing cardiac performance in Langendorff heart impossible to measure cardiac output was calculated by multiplying HR by LVDP.
Throughout the experiment, total coronary blood flow was measured by the use of coronary flow probe (diameter: 1.0 mm) installed in aortic cannula with electromagnetic flowmeter. Temperature of heart was steadily maintained by immersing the heart at 37° C. in physiological saline solution to which 95% O2/5% CO2 was constantly supplied. After stabilization for 15 min, the hearts were pre-treated for 10 min in vehicle (0.04% DMSO) or mixture containing the compound of the present invention or control material. Thereafter, cardiac contractile function, HR and CF were repeatedly measured. Global ischemia was induced by completely shutting off the perfusate for 30 min. Severity of ischemia was determined as the time to contracture (TTC, min) during global ischemia in which the first 5 mmHg increase in EDP was observed. Then, the hearts were reperfused and, 30 min later, contractile functions (LVDP, HR and CF) was repeatedly measured. After reperfusion was accomplished for 30 min, LDH (lactate dehydrogenase) was measured as a sensitive index for loss of cell viability with a kit.

## COC(OC)[C@@]1(C)Oc2ccc(N)cc2[C@@H](N(Cc2nnnn2C)c2ccc(Cl)cc2)[C@@H]1O [Example 17, (2S,3S,4R)-6-amino-4-[N-(4-chlorophenyl)-N-(1-methyl-1H-tetrazol-5-ylmethyl)amino]-3-hydroxy-2-methyl-2-dimethoxymethyl-3,4-dihydro-2H-1-benzopyran]
Isolated rat aorta
  pIC50: < 4.52
[1]
  LD50: > 2000 mg/kg
Cortical neuron cells; 24 hours
  protective effect on neuron cell: Inhibition (%, 30 μM compound addition): 110%
  pIC50: 5.70
Cortical neuron cells; Cortical neurone, 24 h
  pIC50: > 5.70
Brain homogenate
  inhibitory effect against lipid peroxidation induced by iron (%, 100 μM): 87%

## COC(OC)[C@@]1(C)Oc2ccc(N)cc2[C@H](N(Cc2nnn(C)n2)c2ccccc2Cl)[C@H]1O [Example 30, (2S,3R,4S)-6-amino-4-[N-(2-chlorophenyl)-N-(2-methyl-2H-tetrazol-5-ylmethyl)amino]-3-hydroxy-2-methyl-2-dimethoxymethyl-3,4-dihydro-2H-1-benzopyran]
[2]; after 30 min global ischemia and reperfusion
  EDP (mmHg): 17.0 mmHg
[2]; reperfusion LDH release
  LDH (u/g): 15.7 u/g
[2]; reperfusion, % of pre-treatment DP
  LVDP X HR (%): 64.7%
[2]; time to contracture during global ischemia
  TTC: 27.9 min
[1]
  LD50: > 2000 mg/kg
Cortical neuron cells; 24 hours
  protective effect on neuron cell: Inhibition (%, 30 μM compound addition): 103%
Brain homogenate
  inhibitory effect against lipid peroxidation induced by iron (%, 100 μM): 84%

## COC(OC)[C@@]1(C)Oc2ccc(N)cc2[C@H](N(Cc2nnn(C)n2)c2ccc(Cl)cc2C)[C@H]1O [Example 42, (2S,3R,4S)-6-amino-4-[N-(2-methyl-4-chlorophenyl)-N-(2-methyl-2H-tetrazol-5-ylmethyl)amino]-3-hydroxy-2-methyl-2-dimethoxymethyl-3,4-dihydro-2H-1-benzopyran]
[1]
  LD50: > 2000 mg/kg
Cortical neuron cells; 24 hours
  protective effect on neuron cell: Inhibition (%, 30 μM compound addition): 103%
Cortical neuron cells; Cortical neurone, 24 h
  pIC50: 5.59
Brain homogenate
  inhibitory effect against lipid peroxidation induced by iron (%, 100 μM): 85%

## COC(OC)[C@@]1(C)Oc2ccc(N)cc2[C@H](N(Cc2nnn(C)n2)c2ccccc2C(C)C)[C@H]1O [Example 52, (2S,3R,4S)-6-amino-4-[N-(2-isopropylphenyl)-N-(2-methyl-2H-tetrazol-5-ylmethyl)amino]-3-hydroxy-2-methyl-2-dimethoxymethyl-3,4-dihydro-2H-1-benzopyran]
[1]
  LD50: > 2000 mg/kg
Cortical neuron cells; 24 hours
  protective effect on neuron cell: Inhibition (%, 30 μM compound addition): 91%
Cortical neuron cells; Cortical neurone, 24 h
  pIC50: 5.52
Brain homogenate
  inhibitory effect against lipid peroxidation induced by iron (%, 100 μM): 88%

## CCOC(=O)c1ccc(N(Cc2nnn(C)n2)[C@H]2c3cc(N)ccc3O[C@](C)(C(OC)OC)[C@@H]2O)cc1 [Example 54, (2S,3R,4S)-6-amino-4-[N-(4-ethoxycarbonylphenyl)-N-(2-methyl-2H-tetrazol-5-ylmethyl)amino]-3-hydroxy-2-methyl-2-dimethoxymethyl-3,4-dihydro-2H-1-benzopyran]
[1]
  LD50: > 2000 mg/kg
Cortical neuron cells; 24 hours
  protective effect on neuron cell: Inhibition (%, 30 μM compound addition): 98%
  pIC50: 5.82
Cortical neuron cells; Cortical neurone, 24 h
  pIC50: > 5.70
Brain homogenate
  inhibitory effect against lipid peroxidation induced by iron (%, 100 μM): 87%

## COC(OC)[C@@]1(C)Oc2ccc(N)cc2[C@H](N(Cc2nnn(C)n2)c2ccc(F)cc2)[C@H]1O [Example 56, (2S,3R,4S)-6-amino-4-[N-(4-fluorophenyl)-N-(2-methyl-2H-tetrazol-5-ylmethyl)amino]-3-hydroxy-2-methyl-2-dimethoxymethyl-3,4-dihydro-2H-1-benzopyran]
[1]
  LD50: > 2000 mg/kg
Cortical neuron cells; 24 hours
  protective effect on neuron cell: Inhibition (%, 30 μM compound addition): 100%
Cortical neuron cells; Cortical neurone, 24 h
  pIC50: 5.28
Brain homogenate
  inhibitory effect against lipid peroxidation induced by iron (%, 100 μM): 76%

## COC(=O)c1cccc(N(Cc2nnn(C)n2)[C@H]2c3cc(N)ccc3O[C@](C)(C(OC)OC)[C@@H]2O)c1 [Example 59]
[1]
  LD50: > 2000 mg/kg
Cortical neuron cells; 24 hours
  protective effect on neuron cell: Inhibition (%, 30 μM compound addition): 77%
  pIC50: 5.74
Cortical neuron cells; Cortical neurone, 24 h
  pIC50: > 5.70
Brain homogenate
  inhibitory effect against lipid peroxidation induced by iron (%, 100 μM): 70%

## COC(OC)[C@@]1(C)Oc2ccc([N+](=O)[O-])cc2[C@H](N(Cc2nnn(C)n2)c2ccc(O)cc2C)[C@H]1O [Example 64, (2S,3R,4S)-6-nitro-4-[N-(2-methyl-4-hydroxyphenyl)-N-(2-methyl-2H-tetrazol-5-ylmethyl)amino]-3-hydroxy-2-methyl-2-dimethoxymethyl-3,4-dihydro-2H-1-benzopyran]
Brain homogenate
  inhibitory effect against lipid peroxidation induced by iron (%, 100 μM): 79%

## COC(OC)[C@@]1(C)Oc2ccc(N)cc2[C@@H](N(Cc2nnn(C)n2)c2ccc(Cl)cc2)[C@@H]1OC(C)=O [Example 89, (2S,3S,4R)-6-amino-4-[N-(4-chlorophenyl)-N-(2-methyl-2H-tetrazol-5-ylmethyl)amino]-3-acetoxy-2-methyl-2-dimethoxymethyl-3,4-dihydro-2H-1-benzopyran]
[1]
  LD50: > 2000 mg/kg
Brain homogenate
  inhibitory effect against lipid peroxidation induced by iron (%, 100 μM): 81%
